US10682413B2, “Pharmaceutical forms of diazabicyclooctane derivatives and process for producing the same” (Fedora Pharmaceuticals Inc., priority 2017, dated 2020)

Test: Decomposition of Compound (I) in aqueous solutions
Format: physicochemical
From the text: The present application is directed to a pharmaceutical composition of Compound (I) suitable for parenteral administration. […] Applicant discovered a lyophilisate formulation comprising a sugar and Compound (I) to afford an amorphous lyophilisate suitable for intravenous administration.

## NCCONC(=O)[C@@H]1CC[C@@H]2CN1C(=O)N2OS(=O)(=O)O [Compound (I), (2S, 5R)—N-(2-aminoethoxy)-7-oxo-6-(sulfooxy)-1,6-diazabicyclo[3.2.1]octane-2-carboxamide]
  stability in aqueous solutions: undergoes decomposition and dimerization in aqueous solutions
